Series [1] can be described thus: Plasma protein binding rate, equilibrium dialysis, monkey plasma. Format: in vitro ADME. To be noted: pH 7.4, Cynomolgus monkey plasma, 6 hours dialysis. The method, then: The protein binding rate of the compounds of the present invention in the plasma of five species (human, monkey, dog, rat and mouse) was determined by the following test method.
• 1. Human plasma (BioIVT), beagle dog plasma (BioIVT), SD rat plasma (BioIVT), CD-1 mouse plasma (BioIVT); • 2. 96-well equilibrium dialysis plate (HTDialysis LLC, Gales Ferry, CT, HTD96B), equilibrium dialysis membrane (MWCO 12-14 K, #1101); • 3. Positive control compound warfarin; • 4. ABI QTrap 5500 liquid chromatography-mass spectrometry.
1. Preparation of a buffer with a concentration of 100 mM sodium phosphate and 150 mM NaCl: an alkaline solution with a concentration of 14.2 g/L Na2HPO4 and 8.77 g/L NaCl was prepared with ultrapure water, and an acidic solution with a concentration of 12.0 g/L NaH2PO4 and 8.77 g/L NaCl was prepared with ultrapure water. The alkaline solution was titrated with the acidic solution to pH 7.4 to prepare a buffer with a concentration of 100 mM sodium phosphate and 150 mM NaCl.
2. Preparation of dialysis membrane: the dialysis membrane was soaked in ultrapure water for 60 minutes to separate the membrane into two pieces, then soaked in 20% ethanol for 20 minutes, and finally soaked in the buffer used for dialysis for 20 minutes.
3. Preparation of plasma: the frozen plasma was quickly thawed at room temperature, then the plasma was centrifuged at 3,220 g at 4° C. for 10 min to remove clots, and the supernatant was collected into a new centrifuge tube. The pH of the plasma was measured and recorded, and the plasma with pH of 7-8 was used.
3. Preparation of compound-containing plasma samples: 10 mM stock solution of compounds of the present invention or positive control compounds were diluted with DMSO to obtain 200 µM working solution. […]
The peak areas of the compounds on the buffer side and the plasma side were determined. […]
All the data was calculated by the Microsoft Excel software. The plasma protein binding rate values of the compounds of the present invention were calculated.

Series [2] addresses voltage-gated potassium ion channel hERG (Homo sapiens (Human), UniProt Q12809). Put plainly: hERG manual patch clamp in HEK293 cells. The following applies: HEK293 cells stably expressing hERG. The class given is cell-based. The method, then: HEK293 cell line stably expressing hERG ion channel (Cat. No. K1236) was purchased from Invitrogen. The cell line was cultured in the medium containing 85% DMEM, 10% dialysis fetal bovine serum, 0.1 mM non-essential amino acid solution, 100 U/mL penicillin-streptomycin solution, 25 mM HEPES, 5 µg/mL blasticidin and 400 µg/mL geneticin. When the cell density increased to 40%-80% of the bottom area of the culture dish, trypsin was used for digestion and passage, and the cells were passaged three times weekly. Before the experiment, the cells were cultured in a 6 cm culture dish at a density of 5 × 10^5 and induced by adding 1 µg/mL doxycycline for 48 hours, and then the cells were digested and inoculated on glass slides for subsequent manual patch clamp experiments.
1) According to the SOP-ADMET-MAN-007 standard operating procedure, the compounds to be tested were dissolved with DMSO and prepared into the stock solution with a final concentration of 10 mM. […]
10. Determination of the inhibitory effect of the compounds to be tested on hERG current: First, the hERG current measured in extracellular fluid containing 0.1% DMSO was used as the detection baseline. […] By waiting for about 5 minutes after the completion of each perfusion, the compound was allowed to fully act on the cells, and the hERG currents were simultaneously recorded. After the currents to be recorded became stable, the last 5 hERG current values were recorded, and the average value thereof was taken as the final current value thereof at a specific concentration. […] In addition, the positive compound dofelide was detected with the same patch clamp system both before and after the completion of the test compound experiment to ensure the reliability and sensitivity of the entire detection system.
1) After perfusion of blank solvent or compound gradient solution, the average value of 5 continuous current values obtained in a stable state is calculated as “tail current valueblank” and “tail current valuecompound”, respectively.
2) The percent current inhibition was calculated by the following formula. […]

voltage-gated potassium ion channel hERG, sequence (Q12809 whole entry): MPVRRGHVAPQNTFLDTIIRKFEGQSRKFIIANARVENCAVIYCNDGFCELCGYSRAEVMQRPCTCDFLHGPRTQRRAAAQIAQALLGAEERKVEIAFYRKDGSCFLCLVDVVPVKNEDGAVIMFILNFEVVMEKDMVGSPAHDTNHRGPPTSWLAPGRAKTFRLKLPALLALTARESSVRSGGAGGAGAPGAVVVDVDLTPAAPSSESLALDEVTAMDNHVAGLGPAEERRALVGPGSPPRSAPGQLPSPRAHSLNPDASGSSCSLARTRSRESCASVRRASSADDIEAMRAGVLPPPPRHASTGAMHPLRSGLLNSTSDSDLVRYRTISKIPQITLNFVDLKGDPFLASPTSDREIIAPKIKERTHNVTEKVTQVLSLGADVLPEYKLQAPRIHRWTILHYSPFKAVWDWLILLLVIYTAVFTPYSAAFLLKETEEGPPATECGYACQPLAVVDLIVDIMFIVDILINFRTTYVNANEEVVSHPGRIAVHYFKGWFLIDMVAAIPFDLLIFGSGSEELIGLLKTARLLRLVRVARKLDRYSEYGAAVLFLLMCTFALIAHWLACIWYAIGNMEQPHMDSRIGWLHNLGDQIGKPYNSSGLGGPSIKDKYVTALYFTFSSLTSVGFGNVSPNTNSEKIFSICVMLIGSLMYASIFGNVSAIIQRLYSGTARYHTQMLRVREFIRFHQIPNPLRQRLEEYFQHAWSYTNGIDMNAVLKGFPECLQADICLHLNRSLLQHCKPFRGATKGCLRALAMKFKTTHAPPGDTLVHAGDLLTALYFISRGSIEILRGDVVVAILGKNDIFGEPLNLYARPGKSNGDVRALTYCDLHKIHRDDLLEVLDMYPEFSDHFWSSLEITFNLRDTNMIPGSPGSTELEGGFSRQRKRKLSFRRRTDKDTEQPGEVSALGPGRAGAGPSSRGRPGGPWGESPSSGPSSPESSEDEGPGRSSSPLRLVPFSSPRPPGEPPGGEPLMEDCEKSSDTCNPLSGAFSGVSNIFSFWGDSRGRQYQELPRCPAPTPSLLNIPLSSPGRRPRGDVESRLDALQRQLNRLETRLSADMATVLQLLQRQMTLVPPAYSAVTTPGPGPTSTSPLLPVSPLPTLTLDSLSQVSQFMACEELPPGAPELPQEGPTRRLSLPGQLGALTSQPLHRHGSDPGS

As for `C[C@@H]1Cc2c([nH]c3ccccc23)C(c2c(F)cc(N[C@H]3CCN(CCCF)C3)cc2F)N1CC(F)(F)F` (stereo in doubt) [Example 4, (S)-N-(3,5-difluoro-4-((1S,3R)-3-methyl-2-(2,2,2-trifluoroethyl)-2,3,4,9-tetrahydro-1H-pyridino[3,4-b]indol-1-yl)phenyl)-1-(3-fluoropropyl)pyrrolidin-3-amine], the fraction unbound at 6 h, 1 µM in series [1] is 0.002. For the same compound, the half-maximal inhibitory concentration (IC50) in series [2] stood at 3.7 µM.
Compound `C[C@@H]1Cc2c([nH]c3ccccc23)C(c2c(F)cc(N[C@H]3CCN(CCCF)C3)cc2F)N1CC(F)(F)CO` (stereo in doubt) [Example 7, 3-((1S,3R)-1-(2,6-difluoro-4-(((S)-1-(3-fluoropropyl)pyrrolidin-3-yl)amino)phenyl)-3-methyl-3,4-dihydro-1H-pyridino [3,4-b]indole-2(9H)-yl)-2,2-difluoropropane-1-ol] gave an unbound share (fraction unbound) at 6 h, 1 µM in series [1] of 0.023. The half-maximal inhibitory concentration (IC50) in series [2] was found to be 8.4 µM.
For `C[C@@H]1Cc2c([nH]c3ccccc23)[C@@H](c2ccc(N[C@H]3CCN(CCCF)C3)cn2)N1CC(F)(F)F` [Example 3, N-((S)-1-(3-fluoropropyl)pyrrolidin-3-yl)-6-((1S,3R)-3-methyl-2-(2,2,2-trifluoroethyl)-2,3,4,9-tetrahydro-1H-pyridino[3,4-b]indol-1-yl)pyridine-3-amine], in that order: 0.022 and 10 µM.

Source of the values: patent US20230348459A1, “PYRROLIDINE COMPOUND AND USE THEREOF” (SIMCERE PHARMACEUTICAL CO., LTD., priority 2020, published 2023).
